17 compounds from patent publication US11753407B2, “Compounds for treating spinal muscular atrophy” (PTC Therapeutics, Inc., priority 2012, dated 2023) can be followed below.

Series [1] deals with Smn protein in SMA patient fibroblast cells (GM03813). The experiment in a line: Smn protein assay in cultured cells (SMN HTRF). It counts as cell-based, human. Conditions: SMA patient fibroblast cells, 48 hours; for EC1.5x for Smn protein expression: 7-point concentration curve, SMN HTRF, concentration producing 1.5 times Smn protein vs DMSO vehicle control; for maximum fold (Fold) increase of Smn protein: 7-point concentration data, fold relative to vehicle control. The essentials:
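Smn protein quantified by HTRF with anti-SMN d2/kryptate pair, 665/620 nm ratio blank-corrected, in RIPA lysates of GM03813 fibroblasts after 48 h compound exposure (7 concentrations, 3.16-fold steps, triplicates). Values: concentration producing 1.5× vehicle Smn level, and maximal fold increase.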
For orientation: Time-resolved FRET reads energy transfer from a long-lived donor to a nearby acceptor.

Series [2] has as its system SMN2 minigene mRNA (SMN2-A minigene) in HEK293H cells. The experiment in a line: SMN2 minigene mRNA splicing RT-qPCR assay in cultured cells. It counts as cell-based, human. The note with it: Homo sapiens, HEK293-H; concentration increasing full length SMN2 mRNA 1.5-fold relative to vehicle-treated cells; HEK293H cells with SMN2-A minigene, 24 hours, 7-point concentration data; read-out: EC1.5x for production of full length SMN2 mRNA. The essentials: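 EC1.5× = concentration raising full-length SMN2 minigene mRNA 1.5-fold over vehicle, from 7-point curves in duplicate. Stably transfected HEK293H cells exposed 24 h at 37 °C; lysates assayed by multiplex RT-qPCR, minigene FL signal normalized to GAPDH via modified ΔΔCt.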
(In general: Quantitative PCR measures a nucleic acid by following its amplification.)

By melting point is commonly meant the temperature, or range, at which the solid turns liquid.

Compound `Cc1cn2nc(-c3cc(=O)n4cc(C5CCN(C)CC5)ncc4n3)cc2c(C)n1` [Compound 503, 2-(4,6-dimethylpyrazolo[1,5-a]pyrazin-2-yl)-7-(1-methylpiperidin-4-yl)-4H-pyrazino[1,2-a]pyrimidin-4-one] showed a melting point of 257 to 259 °C. Moreover, in series [1], the “EC1.5x for Smn protein expression” value is reported as “**** (an EC1.5x≤0.3 μM is indicated by four stars (****))” and the “maximum fold (Fold) increase of Smn protein” value (“maximum fold (Fold) increase” for short) is “***** (a fold increase >1.65 is indicated by five stars (*****))”. Moreover, the EC (1.5-fold increase) in series [2] was below 0.1 µM.
`COc1ccc(-c2cc(=O)n3cc(C4CCNCC4)ccc3n2)cc1OC` [Cpd 144, 2-(3,4-dimethoxyphenyl)-7-(piperidin-4-yl)-4H-pyrido[1,2-a]pyrimidin-4-one] showed a melting point of 214 to 217 °C. Besides, in series [1], the “EC1.5x for Smn protein expression” value is “**** (an EC1.5x≤0.3 μM is indicated by four stars (****))”; the “maximum fold (Fold) increase” value is “**** (a fold increase between >1.5 and ≤1.65 is indicated by four stars (****))”. In series [2], the EC (1.5-fold increase) was below 0.1 µM.
As to `Cc1cn(-c2cc(=O)n3cc(N4CCNCC4)ccc3n2)cn1` [Cpd 179, 2-(4-methyl-1H-imidazol-1-yl)-7-(piperazin-1-yl)-4H-pyrido[1,2-a]pyrimidin-4-one], the melting point was 204 to 206 °C. Also, in series [1], the “EC1.5x for Smn protein expression” value was “*** (an EC1.5× between >0.3 μM and ≤1 μM is indicated by three stars (***))”; the “maximum fold (Fold) increase” value is recorded as “***** (a fold increase >1.65 is indicated by five stars (*****))”. For the same compound, the EC (1.5-fold increase) in series [2] was 0.3 to 1 µM.
`Cc1nc2ccc(-c3cc(=O)n4cc(N5CCN(C)CC5)ccc4n3)cc2[nH]1` [Compound 689, 2-(2-methyl-1H-benzimidazol-6-yl)-7-(4-methylpiperazin-1-yl)-4H-pyrido[1,2-a]pyrimidin-4-one] came in with a melting point of 292 to 294 °C. In addition, in series [1], the “EC1.5x for Smn protein expression” value is “*** (an EC1.5× between >0.3 μM and ≤1 μM is indicated by three stars (***))”; the “maximum fold (Fold) increase” value is “**** (a fold increase between >1.5 and ≤1.65 is indicated by four stars (****))”. The EC (1.5-fold increase) in series [2] fell in the range of 0.1 to 0.3 µM.
`Cc1nc2ccc(-c3cc(=O)n4cc(C5=CCNCC5)ccc4n3)cc2s1` [Compound 384, 2-(2-methyl-1,3-benzothiazol-6-yl)-7-(1,2,3,6-tetrahydropyridin-4-yl)-4H-pyrido[1,2-a]pyrimidin-4-one] yielded a melting point of 124 to 126 °C. Further, in series [1], the “EC1.5x for Smn protein expression” value is reported as “**** (an EC1.5x≤0.3 μM is indicated by four stars (****))” and the “maximum fold (Fold) increase” value is on record as “***** (a fold increase >1.65 is indicated by five stars (*****))”. Also, the EC (1.5-fold increase) in series [2] is below 0.1 µM.
Compound `CCc1nc(C)cn2nc(-c3cc(=O)n4cc(N5CCN[C@H](C)C5)ccc4n3)cc12` [Compound 661, 2-(4-ethyl-6-methylpyrazolo[1,5-a]pyrazin-2-yl)-7-[(3R)-3-methylpiperazin-1-yl]-4H-pyrido[1,2-a]pyrimidin-4-one] gave a melting point of 185 to 188 °C. For the same compound, in series [1], the “EC1.5x for Smn protein expression” value is on record as “**** (an EC1.5x≤0.3 μM is indicated by four stars (****))” and the “maximum fold (Fold) increase” value was “***** (a fold increase >1.65 is indicated by five stars (*****))”. The EC (1.5-fold increase) in series [2] is below 0.1 µM.
`COc1ccc(-c2cc(=O)n3cc(N4C[C@@H]5CCN(C)[C@@H]5C4)ccc3n2)cc1F` [Compound 280, 2-(3-fluoro-4-methoxyphenyl)-7-[(3aS,6aS)-1-methylhexahydropyrrolo[3,4-b]pyrrol-5(1H)-yl]-4H-pyrido[1,2-a]pyrimidin-4-one] showed a melting point of 207 to 211 °C. In addition, the “maximum fold (Fold) increase” value in series [1] was “* (A maximum fold increase of ≤1.2 is indicated by one star (*))”. The EC (1.5-fold increase) in series [2] was 1 to 3 µM.
Take `COc1ccc(-c2cc(=O)n3cc(C4=CCCNC4)ccc3n2)cc1OC` [Cpd 263, 2-(3,4-dimethoxyphenyl)-7-(1,2,5,6-tetrahydropyridin-3-yl)-4H-pyrido[1,2-a]pyrimidin-4-one]: the melting point was 146 to 150 °C. In series [1], the “EC1.5x for Smn protein expression” value was “*** (an EC1.5× between >0.3 μM and ≤1 μM is indicated by three stars (***))”; the “maximum fold (Fold) increase” value is “**** (a fold increase between >1.5 and ≤1.65 is indicated by four stars (****))”. Also, the EC (1.5-fold increase) in series [2] lay within 0.3 to 1 µM.
`Cc1cn2cc(-c3cc(=O)n4cc(N5CCN(C6CCC6)[C@@H](C)C5)ccc4n3)cc(F)c2n1` [Compound 543, 7-[(3S)-4-cyclobutyl-3-methylpiperazin-1-yl]-2-(8-fluoro-2-methylimidazo[1,2-a]pyridin-6-yl)-4H-pyrido[1,2-a]pyrimidin-4-one] registered a melting point of 264 to 267 °C. In addition, in series [1], the “EC1.5x for Smn protein expression” value is listed as “**** (an EC1.5x≤0.3 μM is indicated by four stars (****))” and the “maximum fold (Fold) increase” value is given as “***** (a fold increase >1.65 is indicated by five stars (*****))”. Further, the EC (1.5-fold increase) in series [2] is below 0.1 µM.
In turn, `CCN1CCN(c2ccc3nc(-c4cc5c(C6CC6)nc(C)cn5n4)cc(=O)n3c2)CC1` [Compound 685, 2-(4-cyclopropyl-6-methylpyrazolo[1,5-a]pyrazin-2-yl)-7-(4-ethylpiperazin-1-yl)-4H-pyrido[1,2-a]pyrimidin-4-one] registered a melting point of 236 to 238 °C. In series [1], the “EC1.5x for Smn protein expression” value is “** (an EC1.5× between >1 μM and ≤3 μM is indicated by two stars (**))”; the “maximum fold (Fold) increase” value is “**** (a fold increase between >1.5 and ≤1.65 is indicated by four stars (****))”. Besides, in series [2], the EC (1.5-fold increase) lay in the range of 0.1 to 0.3 µM.
`Cc1cn2nc(-c3cc(=O)n4cc(N5CC[C@@H](CN)C5)ccc4n3)cc2c(C)n1` [Cpd 764, 7-[(3S)-3-(aminomethyl)pyrrolidin-1-yl]-2-(4,6-dimethylpyrazolo[1,5-a]pyrazin-2-yl)-4H-pyrido[1,2-a]pyrimidin-4-one] registered a melting point of 244 to 246 °C. Moreover, in series [1], the “EC1.5x for Smn protein expression” value was “* (An EC1.5× for Smn protein expression between >3 μM and ≤10 μM is indicated by one star (*))”; the “maximum fold (Fold) increase” value was “*** (a fold increase between >1.35 and ≤1.5 is indicated by three stars (***))”. Further, the EC (1.5-fold increase) in series [2] lay within 1 to 3 µM.
`Cc1ccc(-c2cc(=O)n3cc(N4CCNCC4)ccc3n2)cc1C` [Compound 55, 2-(3,4-dimethylphenyl)-7-(piperazin-1-yl)-4H-pyrido[1,2-a]pyrimidin-4-one] displayed a melting point of 186 to 188 °C. Also, in series [1], the “maximum fold (Fold) increase” value was “* (A maximum fold increase of ≤1.2 is indicated by one star (*))”. The EC (1.5-fold increase) in series [2] was 1 to 3 µM.
On to `CCN1CCC(c2cn3c(=O)cc(-c4ccc5nc(C)cn5c4)nc3cn2)CC1` [Compound 580, 7-(1-ethylpiperidin-4-yl)-2-(2-methylimidazo[1,2-a]pyridin-6-yl)-4H-pyrazino[1,2-a]pyrimidin-4-one], for which the melting point was in the range of 255 to 258 °C. In addition, in series [1], the “EC1.5x for Smn protein expression” value was “*** (an EC1.5× between >0.3 μM and ≤1 μM is indicated by three stars (***))”; the “maximum fold (Fold) increase” value is on record as “***** (a fold increase >1.65 is indicated by five stars (*****))”. Moreover, the EC (1.5-fold increase) in series [2] is below 0.1 µM.
In turn, `Cc1cn2cc(-c3cc(=O)n4cc(N5CCN(C(C)C)[C@H](C)C5)ccc4n3)cc2c(C)n1` [Compound 730, 2-(1,3-dimethylpyrrolo[1,2-a]pyrazin-7-yl)-7-[(3R)-3-methyl-4-(propan-2-yl)piperazin-1-yl]-4H-pyrido[1,2-a]pyrimidin-4-one] gave a melting point of 249 to 251 °C. For the same compound, in series [1], the “EC1.5x for Smn protein expression” value was “**** (an EC1.5x≤0.3 μM is indicated by four stars (****))” and the “maximum fold (Fold) increase” value is recorded as “***** (a fold increase >1.65 is indicated by five stars (*****))”. In addition, the EC (1.5-fold increase) in series [2] is below 0.1 µM.
In turn, `Cc1nc2ccc(-c3cc(=O)n4cc(N5CCN[C@H](C)C5)ccc4n3)cc2o1` [Compound 193, 2-(2-methyl-1,3-benzoxazol-6-yl)-7-[(3R)-3-methylpiperazin-1-yl]-4H-pyrido[1,2-a]pyrimidin-4-one] registered a melting point of 175 to 177 °C. Also, in series [1], the “EC1.5x for Smn protein expression” value is “**** (an EC1.5x≤0.3 μM is indicated by four stars (****))” and the “maximum fold (Fold) increase” value is “***** (a fold increase >1.65 is indicated by five stars (*****))”. In series [2], the EC (1.5-fold increase) was below 0.1 µM.
The compound `CN(C)c1cccc(-c2cc(=O)n3cc(N4CCNCC4)ccc3n2)c1` [Compound 57, 2-[3-(dimethylamino)phenyl]-7-(piperazin-1-yl)-4H-pyrido[1,2-a]pyrimidin-4-one] registered a melting point of 178 to 180 °C. Also, the “maximum fold (Fold) increase” value in series [1] was “* (A maximum fold increase of ≤1.2 is indicated by one star (*))”. Moreover, the EC (1.5-fold increase) in series [2] was 3 to 30 µM.
The compound `Cc1cn2cc(-c3cc(=O)n4cc(C5CCN(C(C)C)CC5)ccc4n3)cc(C)c2n1` [Compound 616, 2-(2,8-dimethylimidazo[1,2-a]pyridin-6-yl)-7-[1-(propan-2-yl)piperidin-4-yl]-4H-pyrido[1,2-a]pyrimidin-4-one] came in with a melting point of 242 to 244 °C. For the same compound, in series [1], the “EC1.5x for Smn protein expression” value is reported as “**** (an EC1.5x≤0.3 μM is indicated by four stars (****))” and the “maximum fold (Fold) increase” value was “***** (a fold increase >1.65 is indicated by five stars (*****))”. Also, in series [2], the EC (1.5-fold increase) was below 0.1 µM.
